Source: article PMC5766608, “Target engagement imaging of PARP inhibitors in small-cell lung cancer” (Nature Communications, 2018)
Like-named read-outs stand apart in the source and are kept apart here. Each block holds one molecule with its values, some of them ahead of it.

What was measured:
PARP1 = biological target: T1, PARP1 (Homo sapiens, UniProt P09874); conditions: cited from earlier work
T1 construct: purchased BPS Bioscience, San Diego, CA

PARP1/2 [1] = experiment: Blocking of PARPi-FL uptake by PARP inhibitors (confocal microscopy, flow cytometry); type: cell-based, human; conditions: JHU-LX22 cells; for Blocking of PARPi-FL uptake: pretreatment with PARP inhibitor 25 min, then PARPi-FL 15 min; for Blocking of PARPi-FL uptake / target engagement, in words: pretreatment with inhibitor, then PARPi-FL
Experimental: (§1) Cells were then treated with fluorescent imaging agent PARPi-FL and either imaged via confocal microscopy or measured via flow cytometry. […] Then, cells were trypsinized, subjected to flow cytometry and analyzed for the relative PARPi-FL fluorescence signal. […] Error bars represent the SD of three independent experiments with three parallels each
We conducted confocal laser scanning microscopy to visualize the extent of intracellular blocking of PARPi-FL uptake by different PARPi. […] PARPi-FL was removed and cells were washed in fresh medium for 10 min. Next, cells were treated with 4% Paraformaldehyde (PFA) for 8 min on ice to ensure fixation. […] PARPi-FL intensity was determined by measuring the PARPi-FL fluorescence intensity in all nuclei, which were thresholded using Hoechst staining.
(§2) After the respective treatment/staining, which is described below for the different experiments, cells were washed in PBS, trypsinized, washed with flow buffer (1% BSA (w/v) in PBS), transferred to 5 mL flow cytometry tubes through the 40 µm cell strainer cap and left on ice until measurement in the flow cytometer (Fortessa II). Raw data were processed in FlowJo software in order to calculate PARPi-FL uptake per cell. Dead cells were excluded by eliminating DAPI positive cells from the analysis (Supplementary Fig. 8). Cell clumps and debris were eliminated using the corresponding gates (forward and side scatter) for the unstained cell population. PARPi-FL fluorescence was imaged in the FITC channel against side scatter (area).
Controls (cells incubated with medium instead of a PARP inhibitor) served as reference value and their PARPi-FL signal was defined as 100%.
To quantify the extent of blocking of PARPi-FL uptake by different PARPi, we quantified the intracellular PARPi-FL uptake in JHU-LX22 cells after incubation with PARP inhibitors.

PARP1/2 [2] = experiment: In vitro binding kinetics by recovery of PARPi-FL binding (flow cytometry); type: cell-based, human
Experimental: as §1, §2
We furthermore determined the duration of PARPi binding to their target site. […] Then, cells were subjected to flow cytometry as described above. […] We determined the duration of binding of the PARPi indirectly by calculating the recovery of PARP-FL binding with increasing times between PARPi and PARPi-FL treatment. Decay curves were calculated with Prism using two phase decay least squares regression.

JHU-LX22 cells = experiment: Cytotoxicity, Alamar Blue assay; type: cell-based, human; conditions: 24-96 h
Experimental: […]. Cells were plated in 96-well plates (black, clear-bottom, Corning Incorporated) at a density of 5,000 cells/well and allowed them to attach for 24 h. All compounds were prepared as 10 mM stock solutions in DMSO and further diluted in media. Cells were treated with 0, 2, 5, and 10 µM (final solutions containing 1% DMSO) of each compound for 24, 48, 72 and 96 h. Then, media was removed and Alamar Blue reagent was added to each well. Plates were incubated at 37 °C for 4 h under protection from direct light. Fluorescence was read (bottom-read mode) using an excitation wavelength of 570 nm and an emission wavelength of 585 nm on a SpectraMax M5 microplate reader (Molecular Devices, Sunnyvale, CA, USA). The average reading values were analyzed by subtracting the background readings (wells with Alamar Blue but without cells) and compared against the untreated controls of each plate (defined as 100% viability) to determine the percentage of living cells. The experiment was carried out in three biological replicates with four parallels of each compound.
Supplementary Figure 9 | In vitro toxicity of the tested PARP inhibitors and imaging tracers on JHU-LX22 cells. (a) Assessment of viable cell population during flow cytometry after a 2 hour incubation time of several PARP inhibitors at concentrations between 0 and 5 µM. (b) Cell viability determination using Alamar Blue assays. Cells were incubated with 0, 0.2, 2, 5 or 10 µM of each compound for 24, 48, 72 or 96 h and cell viability was assessed using the Alamar Blue assay. (c) IC values derived from Alamar Blue assays at 72 h and 96 h.
Viability data represent means from three independent experiments, each with four parallels of each sample. Error bars represent the standard error (SEM). […]

PARP2 = biological target: T2, PARP2 (Homo sapiens, UniProt Q9UGN5); experiment: PARP2 IC50 assay (BPS Bioscience, Strep-HRP, histone substrate); type: biochemical; conditions: footnote a: see Supplementary Fig. 2
T2 construct: purchased BPS Bioscience, San Diego, CA
Experimental: Assays were performed by BPS Bioscience, San Diego, CA. […] Data was reported by BPS a`s % enzyme activity curve from 0.03 nM or 0.1 nM to 1000 nM.

JHU-LX48 SCLC PDX [3] = experiment: PET/CT imaging agent kinetics; type: in vivo, NSG mice; conditions: i.v., JHU-LX48 PDX mice
Excerpt: Error bars represent the SD
Different mice were used for each group to eliminate, as much as possible, the influence of anesthesia on tracer distribution.

JHU-LX48 SCLC PDX [4] = experiment: PET/CT tumor size study
Experimental: PET/CT imaging was performed once a week over 8 consecutive weeks starting one week after xenografting. a Representative MIPs from the same mouse over 8 weeks. b Quantification (n = 6) of mean uptake (top) and max uptake (bottom) of the PET images grouped by tumor size.
(§3) All PET/CT images (n = 90) were acquired on an Inveon PET/CT (Siemens) and reconstructed scans were analyzed using the Inveon Research Workplace Software (Siemens). To acquire PET/CT images, animals were anesthetized with 2% isoflurane and positioned on the scanner bed. […] PET data were collected for 5–10 min, followed by CT.
This was continued for 8 consecutive weeks until mice were sacrificed to avoid surpassing a tumor size limit of 1500 mm^3. Activity concentration was quantified by averaging the mean or max values taken from VOIs drawn over the entire tumor as it appeared in the CT and portrayed as mean and max %ID/g ± SD.

PARylation in LX22 cells = experiment: PARylation inhibition assay (western blot for PAR); type: cell-based, human; conditions: 0.1 µM, 30 min incubation
Experimental: Whole cell lysates were prepared by incubating cells with RIPA Buffer with Triton X (BP-140, Boston BioProducts) containing Protease Inhibitor (Complete EASYpacks, Sigma-Aldrich) for 30 min on ice, followed by 30 min centrifugation at 10,000 × g for 30 min at 4 °C. Protein concentration of lysates was determined using a Bicinchoninic acid (BCA) assay kit (#23225, Pierce) and following the manufacturers instructions. SDS gel electrophoresis and immunoblotting were carried out following standard procedures. Signal detection was carried out using chemiluminescent substrate (#34077, Thermo Scientific). Densitometric analysis of western blots was carried out using ImageJ (NIH). To detect PAR, we used a rabbit polyclonal anti-PAR polymer antibody (1:1000 dilution, #4336-BPC-100, Trevigen) followed by a goat anti-rabbit IgG-HRP secondary antibody (1:10,000 dilution, sc-2004, SantaCruz). B-actin was used as loading control (1:1000 dilution, A3854, Sigma-Aldrich) and was stained after stripping the blot for 30 min at room temperature using stripping buffer (Amresco).
Supplementary Figure 3 | PARylation inhibition assay.
PARPi-FL and [18F]PARPi quantify PARP inhibition, we compared their ability to inhibit PARylation
in comparison with olaparib.
inhibition. At 1 µM, the PAR signal for all three compounds is nearly completely eliminated.

PARP1/2 [5] = conditions: for Blocking of [18F]PARPi tumor uptake (target engagement): 30 min before tracer, PET 2 h later
Excerpt: Fig. 7 Variable dose blocking.
The control group received no therapeutic inhibitor.

PARP1/2 [6] = conditions: olaparib 50 mg/kg, talazoparib 0.3 mg/kg i.v., 60 min between drug and tracer
Experimental: as §3
Activity concentration was quantified by averaging the mean values taken from VOIs drawn over the entire tumor as it appeared in the CT and portrayed as a mean %ID/g ± SD.

PARP1/2 [7] = experiment: Ex vivo autoradiography of target engagement; conditions: olaparib 50 mg/kg, talazoparib 0.3 mg/kg, 30 min prior to tracer; tumor collected 2 h post tracer
Excerpt: Sections from 3 different tumor areas from each tumor (n = 3/group) were exposed to an autoradiography plate overnight and read the next day. ImageJ was used to quantify the signal intensity of each tissue. Adjacent sections were used for PARP1 IHC and H&E staining to confirm tissue identity and PARP1 expression.

[8] = JHU-LX22 cells, 0.2 µM inhibitor 25 min, washed, 0-48 h post-incubation, two phase decay fit

T1 sequence (P09874 whole entry): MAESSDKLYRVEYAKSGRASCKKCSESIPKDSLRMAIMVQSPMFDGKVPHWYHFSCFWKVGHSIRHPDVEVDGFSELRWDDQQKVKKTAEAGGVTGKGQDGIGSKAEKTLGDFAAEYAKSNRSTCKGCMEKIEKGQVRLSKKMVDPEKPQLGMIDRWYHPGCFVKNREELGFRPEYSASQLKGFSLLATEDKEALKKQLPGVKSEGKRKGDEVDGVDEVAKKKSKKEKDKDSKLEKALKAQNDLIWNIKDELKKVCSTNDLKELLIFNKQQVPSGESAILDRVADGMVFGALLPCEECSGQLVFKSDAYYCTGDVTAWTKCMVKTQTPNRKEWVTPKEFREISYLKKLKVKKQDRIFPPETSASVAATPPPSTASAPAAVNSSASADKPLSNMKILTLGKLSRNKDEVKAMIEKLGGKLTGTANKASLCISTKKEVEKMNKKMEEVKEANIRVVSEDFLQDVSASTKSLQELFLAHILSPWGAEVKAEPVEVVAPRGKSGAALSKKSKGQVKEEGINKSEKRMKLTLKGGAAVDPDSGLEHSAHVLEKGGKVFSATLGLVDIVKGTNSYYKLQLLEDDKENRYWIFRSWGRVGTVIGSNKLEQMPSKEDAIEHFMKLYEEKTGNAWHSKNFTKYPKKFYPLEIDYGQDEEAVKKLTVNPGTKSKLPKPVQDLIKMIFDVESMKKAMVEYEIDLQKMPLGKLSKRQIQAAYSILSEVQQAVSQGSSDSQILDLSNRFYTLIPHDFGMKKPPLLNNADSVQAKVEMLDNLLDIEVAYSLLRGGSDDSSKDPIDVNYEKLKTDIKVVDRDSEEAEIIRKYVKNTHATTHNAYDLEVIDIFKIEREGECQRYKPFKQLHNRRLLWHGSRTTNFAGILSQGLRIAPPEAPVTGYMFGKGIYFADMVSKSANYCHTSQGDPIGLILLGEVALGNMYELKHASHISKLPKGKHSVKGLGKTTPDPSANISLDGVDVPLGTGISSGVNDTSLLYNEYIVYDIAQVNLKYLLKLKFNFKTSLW
T2 sequence (Q9UGN5 whole entry): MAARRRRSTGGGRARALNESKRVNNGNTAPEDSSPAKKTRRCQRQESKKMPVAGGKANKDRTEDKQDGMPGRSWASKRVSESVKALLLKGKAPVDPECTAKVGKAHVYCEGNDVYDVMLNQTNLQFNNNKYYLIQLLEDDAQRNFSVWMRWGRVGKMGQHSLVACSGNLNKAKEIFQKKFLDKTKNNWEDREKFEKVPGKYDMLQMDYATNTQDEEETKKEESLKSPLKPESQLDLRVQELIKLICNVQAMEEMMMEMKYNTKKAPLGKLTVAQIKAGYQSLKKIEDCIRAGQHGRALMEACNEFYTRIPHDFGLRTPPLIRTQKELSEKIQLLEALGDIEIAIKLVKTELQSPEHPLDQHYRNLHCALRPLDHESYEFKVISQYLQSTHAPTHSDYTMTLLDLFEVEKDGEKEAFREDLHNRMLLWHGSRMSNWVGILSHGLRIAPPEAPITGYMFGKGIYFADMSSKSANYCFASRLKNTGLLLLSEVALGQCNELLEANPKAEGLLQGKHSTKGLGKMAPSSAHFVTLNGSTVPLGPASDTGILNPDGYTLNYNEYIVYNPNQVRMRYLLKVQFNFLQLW

Compound: CN(C)Cc1ccc(-c2nc3cccc4c3n2CCNC4=O)cc1 [AG14361]
- Ki (PARP1): < 5 nM

Compound: NC(=O)c1ccc(I)c([N+](=O)[O-])c1 [iniparib]
- Blocking of PARPi-FL uptake / target engagement, in words (PARP1/2 [1]): failed to reduce PARPi-FL uptake

Compound: NC(=O)c1cccc2cn(-c3ccc([C@@H]4CCCNC4)cc3)nc12 [Niraparib, niraparib]
- Blocking of PARPi-FL uptake (PARP1/2 [1]): more than 50%
- Retention on PARP1/2 binding sites, in words (PARP1/2 [2]; [8]): faster release kinetics
- Effect on JHU-LX22 cell viability, in words (JHU-LX22 cells): much less cell killing

Compound: O=C(c1cc(Cc2n[nH]c(=O)c3ccccc23)ccc1F)N1CCN(C(=O)C2CC2)CC1 [Olaparib, olaparib]
- Blocking of PARPi-FL uptake / target engagement, in words (PARP1/2 [1]): most complete target engagement
- Inhibition of PARylation (PAR signal) (PARylation in LX22 cells): nearly complete inhibition
- Blocking of [18F]PARPi tumor uptake (target engagement) (PARP1/2 [5]; 5 mg/kg i.v.): 59%
- Blocking of [18F]PARPi tumor uptake (target engagement) (PARP1/2 [5]; 15 mg/kg i.v.): 75%
- Blocking of [18F]PARPi tumor uptake (target engagement) (PARP1/2 [5]; 50 mg/kg i.v.): 78%
- 50% blocking dose (PARP1/2 [5]; single-phase decay curve fit, JHU-LX48 PDX tumor): 3.17 mg/kg
- Initial blocking (t = 1 h) (PARP1/2 [6]): 74%
- Initial blocking (t = 1 h) (PARP1/2 [6]; listed as olaparib): 74%
- [18F]PARPi tumor uptake blocked (autoradiography) (PARP1/2 [7]): 96%

Continued, in another order:

- Retention on PARP1/2 binding sites, in words (PARP1/2 [2]): faster release kinetics
Compound: C[C@]1(c2nc3c(C(N)=O)cccc3[nH]2)CCCN1 [Veliparib, veliparib]
- Blocking of PARPi-FL uptake (PARP1/2 [1]): more than 50%
- Effect on JHU-LX22 cell viability, in words (JHU-LX22 cells): much less cell killing

- IC50 (PARP2): 0.21 nM
- Muscle uptake (PET) (JHU-LX48 SCLC PDX [3]; 30 min post injection): 0.90 ± 0.06 %ID/g
- Tumor uptake (PET) (JHU-LX48 SCLC PDX [3]; 30 min post injection): 1.34 ± 0.28 %ID/g
- Muscle uptake (PET) (JHU-LX48 SCLC PDX [3]; 60 min post injection): 0.44 ± 0.03 %ID/g
- Tumor uptake (PET) (JHU-LX48 SCLC PDX [3]; 60 min post injection): 0.94 ± 0.04 %ID/g
- Muscle uptake (PET) (JHU-LX48 SCLC PDX [3]; 120 min post injection): 0.12 ± 0.02 %ID/g
- Tumor uptake (PET) (JHU-LX48 SCLC PDX [3]; 120 min post injection): 0.87 ± 0.21 %ID/g
- Maximum tumor uptake (JHU-LX48 SCLC PDX [4]; tumor sizes 50-100 mm^3): 2.62 ± 0.27 %ID/g
- Maximum tumor uptake (JHU-LX48 SCLC PDX [4]; tumor sizes 50-1300 mm^3): 2.85 ± 0.49 %ID/g
- Mean tumor uptake, highest single value (JHU-LX48 SCLC PDX [4]; tumor sizes 50-1300 mm^3): 1.24 %ID/g
- Mean tumor uptake, lowest single value (JHU-LX48 SCLC PDX [4]; tumor sizes 50-1300 mm^3): 0.47 %ID/g
- Mean tumor uptake (JHU-LX48 SCLC PDX [4]; tumor sizes 50-1300 mm^3, 2 h post injection): 0.86 ± 0.22 %ID/g
- Maximum tumor uptake (JHU-LX48 SCLC PDX [4]; tumor sizes 800-1300 mm^3): 3.06 ± 0.61 %ID/g
- Mean tumor uptake (JHU-LX48 SCLC PDX [4]; tumor sizes between 100 and 200 mm^3): 0.97 ± 0.18 %ID/g
- Mean tumor uptake (JHU-LX48 SCLC PDX [4]; tumor sizes between 400 and 800 mm^3): 0.71 ± 0.22 %ID/g
Compound: O=C(c1ccc([18F])cc1)N1CCN(C(=O)c2cc(Cc3n[nH]c(=O)c4ccccc34)ccc2F)CC1 [[^18F]PARPi]

- Retention on PARP1/2 binding sites, in words (PARP1/2 [2]; [8]): longest retention
Compound: CNCc1ccc(-c2[nH]c3cc(F)cc4c3c2CCNC4=O)cc1 [Rucaparib, rucaparib]
- Blocking of PARPi-FL uptake / target engagement, in words (PARP1/2 [1]): most complete target engagement
